“And” between values parts separate entries of the source, which are not always exact repeats. Equal values may be shown once.
Legend:
M. incognita = assay: Meloidogyne spp. (Root-knot nematode) contact activity, preventive, drench test (Biological Screen Nem 2); type: in vivo; conditions: cucumber cv. Toshka in pots, WP10 suspension at 20 ppm, 3000 eggs of M. incognita, harvested after fourteen days, Zeck's gall index, cis vs trans isomers
Description: Meloidogyne spp. (Root-knot nematode) contact activity, preventive, drench test. Cucumber cv. Toshka seeds were shown directly into pots filled with a sandy substrate. Six days later pots were each treated with 5 ml of a WP10 suspension of the test compound at 20 ppm. Hereafter pots were inoculated with 3000 eggs of M. incognita. The trial was harvested fourteen days after trial application and inoculation. Root galling was assessed according to Zeck's gall index (Zeck, 1971). Biological Screen Nem 2. Meloidogyne spp. (Root-knot nematode) contact activity, preventive, drench test. Values are given in % galling.

[1] = test system: Meloidogyne spp. (Root-knot nematode); assay: Meloidogyne spp. (Root-knot nematode) contact activity, preventive, pouch test (Biological Screen Nem 1); type: in vivo; conditions: cucumber cv. Toshka, test solutions at 200 ppm, 3000 eggs, assessed after twelve days, cis vs trans isomers
Description: Meloidogyne spp. (Root-knot nematode) contact activity, preventive. Pouch test. Filter papers (9 cm×4.5 cm) with a small pocket were placed into plastic pouches (12 cm×6 cm). One cucumber cv. Toshka seed was placed in the centre of the filter paper pocket of all the pouches needed for a test. The cucumber seeds in the pouches were treated with test solutions at 200 ppm by pipetting the solution directly over the cucumber seed in the filter paper pocket in the pouch. Prior to application, the compound solution was prepared at twice the concentration required and the egg suspension is prepared with FORL nutrient solution with 3000 eggs/0.5 ml. After applying all the treatments, 3000 eggs (in 0.5 ml of FORL nutrient solution) were pipetted into the pouches. The pouches were incubated in a moist chamber for twelve days and watered regularly to maintain good filter paper moisture essential for the growing cucumber root system. After this period, the filter paper containing the germinated cucumber seedling was removed from the plastic pouch to assess the number of galls caused by Meloidogyne spp. per root system. Biological Screen Nem 1. Meloidogyne spp. (Root-knot nematode) contact activity, preventive. Pouch test. Values are given in % galling.

melting point	SMILES	Nem 2 (% galling) (M. incognita) [%]	Nem 1 (% galling) [1] [%]
167 to 169 °C	C[C@H]1C(c2ccc(Cl)cc2)[C@@H]1NC(=O)c1ccccc1C(F)(F)F (mixture of isomers) [Compound 68.008, N-[(1R,2R,3S)-2-(4-chlorophenyl)-3-methyl-cyclopropyl]-2-(trifluoromethyl)benzamide]	–	–
140 to 142 °C	C[C@]1(c2ccc(Cl)cc2)CC1NC(=O)c1c(F)cccc1F (mixture of isomers) [Compound 68.009, N-[(1R,2R)-2-(4-chlorophenyl)-2-methyl-cyclopropyl]-2,6-difluoro-benzamide]	–	–
90 to 96 °C	C[C@H]1C(NC(=O)c2c(F)cccc2F)[C@H]1c1ccc(F)cc1 (mixture of isomers) [Compound 68.003, 2,6-difluoro-N-[(1R,2R,3R)-2-(4-fluorophenyl)-3-methyl-cyclopropyl]benzamide]	–	–

More lines, now with the values behind:

SMILES	melting point	Nem 2 (% galling) (M. incognita) [%]	Nem 1 (% galling) [1] [%]
O=C(N[C@@H]1C[C@@H]1c1ccc(Cl)cc1Cl)c1ccccc1C(F)(F)F (racemic) [Compound 67-014]	–	98	100
O=C(N[C@@H]1CC1c1ccc(Cl)cc1Cl)c1c(F)cccc1F (stereo partly shown) [Compound 67-016]	179 to 182 °C	96	81
O=C(N[C@@H]1C[C@@H]1c1ccc(OC(F)F)cc1)c1ccccc1C(F)(F)F (relative stereo) [Compound 67-011, N-[cis-2-(4-difluoromethoxy-phenyl)-cyclopropyl]-2-trifluoromethyl-benzamide]	133 to 136 °C	–	–
O=C(N[C@@H]1C[C@@H]1c1ccc(F)cc1)c1ccccc1C(F)(F)F (relative stereo) [Compound 67-003, N-[cis-2-(4-Fluoro-Phenyl)-Cyclopropyl]-2-Trifluoromethyl-benzamide]	140 to 142 °C and 139 to 140 °C	–	–
O=C(N[C@@H]1C[C@@H]1c1ccc(C(F)(F)F)cc1)c1ccccc1C(F)(F)F (racemic) [Compound 67-026]	–	82	64
Cn1cc(C(=O)N[C@@H]2C[C@@H]2c2ccc(F)cc2)c(C(F)F)n1 (relative stereo) [Compound 67.002, 3-difluoromethyl-1-methyl-1H-pyrazole-4-carboxylic acid [(cis)-2-(4-fluoro-phenyl)-cyclopropyl]-amide]	141 to 143 °C	–	–

— patent US9408392B2, “Compounds” (SYNGENTA PARTICIPATIONS AG, priority 2012, dated 2016)
